The text below walks through data of article PMC10597491 (PLOS ONE, 2023).

One assay addresses T1, human IL-7Rα ECD (Homo sapiens, UniProt P16871).
T1 construct: IL-7Rα(aa 21–236)-His6, Sino Biological Cat# 10975-H08H; His6 (C); purchased Sino Biological 10975-H08H
T1 sequence (P16871 21-236): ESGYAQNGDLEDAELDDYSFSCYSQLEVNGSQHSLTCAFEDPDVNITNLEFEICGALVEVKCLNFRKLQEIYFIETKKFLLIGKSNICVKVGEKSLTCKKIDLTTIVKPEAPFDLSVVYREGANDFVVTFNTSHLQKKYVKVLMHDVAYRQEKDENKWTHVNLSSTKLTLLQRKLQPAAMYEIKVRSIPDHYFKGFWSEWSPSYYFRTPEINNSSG
The experiment in a line: Competition binding ELISA, human IL-7Rα ECD. The note with it: immobilized IL-7Rα-(His)6 ECD; tracer biotinylated MDK1248 pre-complexed with Neutravidin-HRP; 4°C; valency-sensitive format. From the text: (§1) (A, B) Determination of IC50 values in a competition ELISA for compound binding to human and cyno IL-7Rα and γc. The assay format is IL-7Rα-(His)6-tagged ECD or Fc-γc ECD immobilized on 96-well plates. Tracers are C-terminal biotinylated forms of the reference IL-7Rα and γc peptide ligands, each pre-complexed with Neutravidin-HRP (NA-HRP). (C, D) Label-free measurement of the equilibrium dissociation constant (KD) for peptide binding to IL-7Rα and γc extracellular domains with peptides was performed by biolayer interferometry as detailed in methods. Red lines depict 1:1 binding fit from Gator™ software. Blue lines represent individual BLI sensogram data taken every 0.1 seconds.
(§2) Binding was determined using a competition binding ELISA. Microtiter plates (Immulon 4HBX flat bottom 96-well) were coated with 50 μL of […] human ECDs: IL-7Rα(aa 21–236)-His6, Sino Biological Cat# 10975-H08H; cynomolgus IL-7Rα(aa 21–235)-His6, Sino Biological Cat# 90332-C08H; human IL-2Rα(aa 23–254)-Fc, Acro Cat# ILG-H5256; cynomolgus IL-2Rα(aa 23–254)-Fc, made in-house, in PBS overnight at 4°C. […] Plates were washed with cold wash buffer, and bound tracer was detected using TMB One Component HRP substrate and Stop Solution (Surmodics Cat# TMBW-1000-01 and LSTP-0100-01). Absorbance at 450 nm was read using Agilent BioTek Synergy HTX Multimode Reader.
On the technique in general: In an ELISA, binding on a coated surface is turned into a signal by an enzyme label.

The target in the next assay is T2, human γc ECD (Homo sapiens, UniProt P31785).
T2 construct: human IL-2Rα(aa 23–254)-Fc, Acro Cat# ILG-H5256; purchased Acro ILG-H5256
T2 sequence (P31785 23-254): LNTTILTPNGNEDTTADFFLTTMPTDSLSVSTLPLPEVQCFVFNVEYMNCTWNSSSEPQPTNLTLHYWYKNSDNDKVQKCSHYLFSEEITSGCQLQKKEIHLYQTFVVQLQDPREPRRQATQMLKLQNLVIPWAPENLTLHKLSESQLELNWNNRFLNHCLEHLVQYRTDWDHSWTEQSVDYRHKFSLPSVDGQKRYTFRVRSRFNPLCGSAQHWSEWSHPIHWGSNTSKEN
The assay can be described thus: Competition binding ELISA, human γc ECD. The following applies: immobilized Fc-γc ECD; tracer biotinylated MDK1188 pre-complexed with Neutravidin-HRP; 4°C.
From the text: as §1, §2

In the next assay the test system is human PBMCs. The assay can be described thus: Proliferation and expansion of PBMC subpopulations in culture. It is filed as cell-based. The text has this: An essential feature of IL-7-mediated homeostatic lymphoid maintenance is the proliferation of naive T-cells, expanding both recent thymic emigrants and circulating TN clones to sustain the population and preserve a diverse TCR repertoire in the naive T-cell compartment. […] In the CD8+ population, Ki-67+ frequency reached a peak by day 7, declining slightly by day 16. […] The high Ki-67 background in untreated samples of Treg and NK cells may indicate a high basal turnover rate of these cell types in culture.
Data are shown as mean ± SEM. Flow cytometry gating data shown in S2 Fig.
On days 3, 7, 16, and 30, cell aliquots were taken and analyzed by flow cytometry of CD8+ T naïve and memory populations. (A) Schematic of the putative differentiation pathway of the memory T cell compartment. (B) differential gating of naïve and early memory (Tscm) subpopulations. (C) Cell counts of treated and untreated memory subpopulations over time. (D) Stacked bar representation of changes in total memory T cell subpopulations over time. […] Data are shown as mean ± SEM. Detailed gating information is provided in S4 Fig.
Frozen human PBMCs from 5 healthy donors (Stemcell Technologies, Cat# 70025.2, Lot numbers 2108409012, 2109407009, 210680104C, 210680801C, 211280501C, 220781802C) were thawed and rested overnight at 37°C, 5% CO2 in CTS™ OpTmizer™ T-Cell Expansion SFM (ThermoFisher Scientific Cat# A1048501). […] At indicated time points, cell aliquots were taken, and cell surface staining was performed using antibodies shown in S3 Table followed by viability dye staining. For Ki-67 and FoxP3 staining, surfaced stained cells were fixed and permeabilized according to the manufacturer’s instructions and analyzed immediately using the Novocyte Advanteon instrument (Agilent). The data were analyzed using FlowJo software. Fluorescence Minus One (FMO) controls were used to draw gates. Percentages of Ki-67+ cell populations were expressed as average ± SEM. Memory T-cells are as follows: Tn (CD45RA+CCR7+CD28+CD95-), Tscm (CD45RA+CCR7+CD28+CD95+), Tem (CD45RA-CCR7-), Tcm (CD45RA-CCR7+), and Temra (CD45RA+CCR7-). To count cells per well, at each assay time point 50 μL of the cells were taken from each well and incubated with 200 μL of the viability dye solution. The NovoCyte Advanteon flow cytometer was set to analyze precisely 50 μL ([…] original culture volume), which allowed the calculation of the absolute live cell counts. Because the culture volumes change over time due to splitting and removal, dilution factors were considered when calculating the total number of cells.

The subject of assay [1] is rested human CD8+ T-cells. The note with it: IL-7-treated CD8+ cells, over 6 hours at 37°C; cited from earlier work. The text has this:
Internalization of the ternary signaling complex also depletes the local ...

Bridge positions count the residues as written; N and C are the ends. Ends that are not written are not given here.

Broadly, the IC50 is the point on the concentration scale where inhibition reaches its midpoint.

As for “Ac-GWGIPWCTLDPGSLQCAWLGKHGGGGSGGVVCQDWEGVELCWQGG (disulfide 7-16, 32-41) [MDK1472]”, the values for the IC50 on human IL-7Rα ECD and on human γc ECD were 340 nM and 57 nM, respectively.

For IL-7: human IL-7 cytokine (Peprotech), in the assay on human PBMCs (between days 7 and 16), the “CD4+ and CD8+ maximal counts over day 1 baseline” value is recorded as 5 fold. In addition, in the assay with human PBMCs (day 30, 100 nM MDK-703 or 1 nM IL-7, untreated 5-fold), the “CD8+ Tscm cell number increase” value is listed as 1300 fold. Moreover, the “CD8+ T-cell number, increase over baseline” value in the assay on human PBMCs (day 30 in culture, 100 nM MDK-703 or 1 nM IL-7, 5 donors) stood at 5.2 fold. For the same substance, in the assay on human PBMCs (over 30 days), the “CD8+ Temra expansion” value amounted to 7 fold. Besides, the “disappearance of surface IL-7Rα” value in assay [1] was ~ 80%.
